# According to US8178324B2, “Deracemisation of amines” (Ingenza Limited, priority 2002, dated 2012):
# “Also recorded” adds a separate entry of the source. Read-outs that look alike come from different tables or passages of the source.
# How the values were obtained:
# [1] = molecular target: T1, N336S mutant A. niger monoamine oxidase (Aspergillus niger, UniProt P46882, A300V/K348M/L304V/N336S/R450G); type: biochemical; design: key to Relative Rate (symbol): *: No measurable rate; conditions: for Relative Rate: relative to (S)-α Methylbenzylamine = 1
# T1 construct: made in house; host or cells: E. coli BL21(DE3), pET16b
# Protocol: (§1) 5 ml phosphate buffer (1 M, pH 7.6)
# (§2) 500 μl 2,4,6-tribromo-3-hydroxybenzoic acid (2% in DMSO)
# (§3) 37.5 μl 4-aminoantipyrine (1.5 M) • 30 μl amine substrate (final concentration 0.015-5 mM) • 44.4 ml water
# (§4) Assay Conditions: • 990 μl assay mixture • 5 μl horse radish peroxidase (1 mg·ml^−1) • 10 μl enzyme
# (§5) The spectrophotometer was blanked against assay mixture and HRP. Enzyme was added and the absorbance at 500 nm measured at 3 s intervals for a 10 minute period.
# The activity of the mutant enzyme described above was studied in relation to a variety of amine substrates. […]
# [2] = molecular target: T2, wild-type A. niger MAO-N enzyme (Aspergillus niger, UniProt P46882, A300V/K348M/L304V/R450G); assay: Colorimetric hydrogen peroxide (HRP/TBHBA/4-aminoantipyrine) amine oxidase assay, purified wild-type enzyme; type: biochemical; conditions: for kcat, Wild-type Enzyme: purified wild-type enzyme, active enzyme from FAD absorbance at 458 nm
# T2 construct: made in house; host or cells: E. coli BL21(DE3), pET16b
# Protocol: (§6) The wild-type enzyme was also purified by the same protocol and the two enzymes compared for substrate specificity and enantioselectivity.
# as §1, §2, §3, §4, §5
# (§7) The Km values were calculated using ‘KaleidaGraph for Windows’ (Synergy Software). For calculation of the kcat, the active enzyme concentration was determined by estimating the FAD content from the absorbance at 458 nm using an extinction coefficient of 11 mM^−1 cm^−1 (see ref 12).
# [3] = molecular target: T3, mutant A. niger monoamine oxidase (N336S) (Aspergillus niger, UniProt P46882, A300V/K348M/L304V/N336S/R450G); assay: Colorimetric hydrogen peroxide amine oxidase assay, purified mutant enzyme (N336S); type: biochemical
# T3 construct: made in house; host or cells: E. coli BL21(DE3), pET16b
# Protocol: as §6
# The mutated gene was also sequenced and the sequence is shown in SEQ ID NO: 2. There was a single amino acid change from the wild-type enzyme with serine replacing asparagine at position 336.
# LB medium (6×300 ml) containing ampicillin (100 μg·ml^−1) in 1 L baffled flasks was inoculated with a single colony of monoamine oxidase mutant from an LB agar plate. Cultures were incubated at 30° C. for 22 hours (OD600˜3.6) then harvested and washed with phosphate buffer (50 mM, pH 8) to yield a yellow-brown pellet (11.2 g).
# The pellet was resuspended in Tris/HCl buffer (25 mM, pH 7.8, 30 ml) and sonicated on ice (30 s on, 30 s off for 10 minutes). The suspension was then centrifuged (20,000 rpm, 4° C.) until clear supernatant was obtained and the supernatant dialysed against Tris/HCl buffer (25 mM, pH 7.8). The cell free extract was filtered through 0.45 μm sterile membrane and chromatographed on a QSepharose anion exchange column. Fractions were assayed using colorimetric hydrogen peroxide based assay and active fractions were stored at −80° C. The active fraction has a protein content of 1 mg·ml^−1, and a specific activity of 0.193 U·mg^−1 against amylamine.
# as §1, §2, §3, §4, §5, §7
# [4] = molecular target: T4, mutant amine oxidase (N336S) (Aspergillus niger, UniProt P46882, A300V/K348M/L304V/N336S/R450G); assay: Chiral HPLC (Chiralcel CrownPak CR+) check of oxidation by the mutant; type: biochemical; conditions: after 24 h
# T4 construct: made in house; host or cells: E. coli BL21(DE3), pET16b
# Protocol: The data reveal that the activity of the mutant amine oxidase towards L-AMBA (kcat=8.0 min-1) is 47 fold higher than the wild-type (kcat=0.17 min-1). Moreover the selectivity of the mutant for the L-enantiomer versus D-AMBA (ca. 100:1) has also been increased relative to the wild type enzyme (ca. 17:1). Thus the outcome of the in vitro evolution experiments has been to simultaneously improve both the enantioselectivity and catalytic activity of the enzyme. For comparison, the activity towards the best substrate for the wild-type enzyme, namely amylamine, and also benzylamine, is presented.
# MAO mutant N336S = molecular target: T5, MAO mutant N336S (Aspergillus niger, UniProt P46882, A300V/K348M/L304V/N336S/R450G); assay: Stereoinversion reaction with MAO mutant N336S and ammonia-borane, HPLC monitoring; type: biochemical; conditions: ammonia-borane, 30° C., 24 hours
# T5 construct: made in house; host or cells: E. coli BL21(DE3), pET16b
# Protocol: More Specifically, MAO mutant N336S (100 μl of 0.193 U·ml^−1=0.02 U) was added to a solution of L-AMBA (0.13 μl, final concentration=0.4 mM) and ammonia-borane complex (10 μl of 4M solution, final concentration=80 mM, 200 eq) in phosphate buffer (400 μl, 20 mM, pH8). A 10 μl aliquot was diluted in 990 μl perchloric acid, pH 1.5 and analysed by HPLC. The reaction mixture was incubated at 30° C. and the reaction monitored by HPLC at regular intervals until no further reaction was observed.
# Analytical conditions: Column=Chiralcel CrownPak CR+ • Mobile phase=100% perchloric acid, pH 1.5 • Flow rate=0.8 ml·min^−1 • Detection=200 nm • Temperature=25° C. • r.t. (L-AMBA)=12.8 min • r.t. (D-AMBA)=16.5 min
# [5] = molecular target: Type II monoamine oxidase from Aspergillus niger (MAO-N) (Aspergillus niger, UniProt P46882, A300V/K348M/L304V/R450G); conditions: literature refs 10-12; cited from earlier work
# Sequence of Type II monoamine oxidase from Aspergillus niger (MAO-N) (P46882 whole entry A300V/L304V/K348M/R450G): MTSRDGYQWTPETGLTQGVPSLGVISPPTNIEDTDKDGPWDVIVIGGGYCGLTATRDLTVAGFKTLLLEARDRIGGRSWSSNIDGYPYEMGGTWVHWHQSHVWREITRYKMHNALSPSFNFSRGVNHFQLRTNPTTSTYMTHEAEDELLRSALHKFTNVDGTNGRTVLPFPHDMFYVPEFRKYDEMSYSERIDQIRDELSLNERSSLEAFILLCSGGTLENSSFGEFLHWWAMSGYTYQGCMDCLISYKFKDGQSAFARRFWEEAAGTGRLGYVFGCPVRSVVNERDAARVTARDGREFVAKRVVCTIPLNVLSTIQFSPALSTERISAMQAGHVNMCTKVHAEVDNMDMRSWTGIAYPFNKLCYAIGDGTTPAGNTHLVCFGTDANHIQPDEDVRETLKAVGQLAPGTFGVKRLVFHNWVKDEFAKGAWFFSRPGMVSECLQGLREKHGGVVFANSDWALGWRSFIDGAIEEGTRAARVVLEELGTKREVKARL
# T2 sequence (P46882 whole entry A300V/L304V/K348M/R450G): as above
# T1 sequence (P46882 whole entry A300V/L304V/N336S/K348M/R450G): as the sequence (P46882 whole entry A300V/L304V/K348M/R450G) above, with N336S counted along it
# T3 sequence (P46882 whole entry A300V/L304V/N336S/K348M/R450G): as the sequence (P46882 whole entry A300V/L304V/K348M/R450G) above, with N336S counted along it
# T5 sequence (P46882 whole entry A300V/L304V/N336S/K348M/R450G): as the sequence (P46882 whole entry A300V/L304V/K348M/R450G) above, with N336S counted along it
# T4 sequence (P46882 whole entry A300V/L304V/N336S/K348M/R450G): as the sequence (P46882 whole entry A300V/L304V/K348M/R450G) above, with N336S counted along it
Compound,Relative Rate (symbol) [1],Relative Rate [1],also measured
Cc1ccc([C@@H](C)N)cc1,*,,
Cc1ccc([C@H](C)N)cc1,,0.28,
CC(N)c1ccc(Br)cc1 (racemic) [(rac)-4-Bromo-α-phenylethylamine],*,,
CC(N)c1ccccc1 (racemic) [(rac)-α Methylbenzylamine],*,,
"CC(C)CC(C)N (stereo not drawn) [1,3-Dimethylbutylamine]",,1.8,
CC1CCCCC1N (stereo not drawn) [2-Methylcyclohexylamine],,0.43,
COc1ccc([C@@H](C)N)cc1 [(R)-1-4-Methoxyphenylethylamine],,0.13,
C[C@@H](N)C(C)(C)C [(R)-3-3-Dimethyl-2-butylamine],*,,
CC(C)[C@@H](C)N [(R)-3-Methyl-2-butylamine],*,,
C[C@@H](N)c1ccc(Br)cc1 [(R)-4-Bromo-α-phenylethylamine],*,,
C[C@@H](N)c1ccc([N+](=O)[O-])cc1 [(R)-α-Methyl-4-nitrobenzylamine],,0.06,
COc1ccc([C@H](C)N)cc1 [(S)-1-4-Methoxyphenylethylamine],,0.81,
C[C@H](N)C(C)(C)C [(S)-3-3-Dimethyl-2-butylamine],,1.4,
CC(C)[C@H](C)N [(S)-3-Methyl-2-butylamine],,5.4,
C[C@H](N)c1ccc(Br)cc1 [(S)-4-Bromo-α-phenylethylamine],,0.24,
C[C@H](N)c1ccc([N+](=O)[O-])cc1 [(S)-α-Methyl-4-nitrobenzylamine],,0.91,
CC(NC(C)c1ccccc1)c1ccccc1 (stereo not drawn) [Bis(α-methyl)benzylamine],*,,
"CC(N)c1ccccc1 [D-AMBA, α-methylbenzylamine]",*,,"activity of the wild-type A. niger MAO-N enzyme ([2]; listed as D-enantiomer): even slower oxidation; kcat, Wild-type Enzyme [2]: 0.00017 s⁻¹; kcat, Mutant Enzyme ([3]; purified N336S mutant): 0.0013 s⁻¹; oxidation by the mutant seen by chiral HPLC [4]: no detectable conversion; conversion under stereoinversion conditions (MAO mutant N336S): no conversion; also recorded: no reaction was observed"
CCCCCCN [Hexylamine],,18.6,
"CC(N)c1ccccc1 [L-AMBA, L-α-methylbenzylamine]",,1,"activity of the wild-type A. niger MAO-N enzyme [2]: very low, but measurable activity; kcat, Wild-type Enzyme [2]: 0.00283 s⁻¹; activity (kcat) of the mutant relative to the wild-type ([3]; mutant kcat versus wild-type kcat): 47 fold; Km ([3]; purified N336S mutant): 400 µM; kcat, Mutant Enzyme ([3]; purified N336S mutant): 0.133 s⁻¹; oxidation by the mutant seen by chiral HPLC [4]: complete oxidation"
CCCCCCCN [N-heptylamine],,12.1,
CCCCCN [amylamine],,25.2,"kcat, Wild-type Enzyme [2]: 16.67 s⁻¹; reported activity of MAO-N [5]: high activity"
NCc1ccccc1 [benzylamine],,,"kcat, Wild-type Enzyme [2]: 6.18 s⁻¹; kcat, Mutant Enzyme ([3]; purified N336S mutant): 3.27 s⁻¹; reported activity of MAO-N [5]: active, albeit at a lower rate"
CCCCN [butylamine],,,reported activity of MAO-N [5]: high activity
